ChEMBL document CHEMBL1128407 (J Med Chem, 1995)

Assays:
HCT-116 = experiment: Compound is evaluated for an in vitro cytotoxicity assay against HCT116 tumor cell lines; assay type: functional, cell-based; details: Homo sapiens
[1] = biological target: Tubulin alpha chain (Sus scrofa) (UniProt P02550); experiment: Compound is evaluated for tubulin polymerization (ratio of compound relative to paclitaxel (EC0.01).
Tubulin alpha chain (Sus scrofa), sequence (P02550 whole entry, looked up): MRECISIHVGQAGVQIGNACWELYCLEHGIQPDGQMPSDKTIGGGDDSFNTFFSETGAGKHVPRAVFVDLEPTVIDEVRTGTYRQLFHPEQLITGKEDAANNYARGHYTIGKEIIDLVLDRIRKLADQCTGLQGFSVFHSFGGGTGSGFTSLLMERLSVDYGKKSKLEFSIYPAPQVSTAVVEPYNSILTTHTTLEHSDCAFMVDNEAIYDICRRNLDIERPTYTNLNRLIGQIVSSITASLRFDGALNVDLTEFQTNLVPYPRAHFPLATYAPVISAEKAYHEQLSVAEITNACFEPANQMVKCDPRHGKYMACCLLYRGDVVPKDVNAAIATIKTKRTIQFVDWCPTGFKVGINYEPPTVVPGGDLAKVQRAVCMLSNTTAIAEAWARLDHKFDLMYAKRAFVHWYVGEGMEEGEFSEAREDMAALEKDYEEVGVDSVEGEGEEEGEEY

Structure (SMILES) | Ratio [1] | IC50 (HCT-116)
CC(=O)O[C@H]1C(=O)[C@@]2(C)[C@H]([C@H](OC(=O)c3ccccc3)[C@]3(O)C[C@H](OC(=O)[C@H](O)[C@@H](NC(=O)c4ccccc4)c4ccccc4)C(C)=C1C3(C)C)[C@]1(OC(=O)N3CC3)CO[C@@H]1C[C@@H]2O |  | 15.6 nM
CC(=O)O[C@H]1C(=O)[C@]2(C)[C@@H](O)CC3OC[C@@]3(OC(=O)C3CC3)[C@H]2[C@H](OC(=O)c2ccccc2)[C@]2(O)C[C@H](OC(=O)[C@H](O)[C@@H](NC(=O)c3ccccc3)c3ccccc3)C(C)=C1C2(C)C (stereo not given in full) |  | 1 nM
CC(=O)O[C@H]1C(=O)[C@]2(C)[C@@H](O)CC3OC[C@@]3(OC(C)=O)[C@H]2[C@H](OC(=O)c2ccccc2)[C@]2(O)C[C@H](OC(=O)[C@H](O)[C@@H](NC(=O)OC(C)(C)C)c3ccccc3)C(C)=C1C2(C)C (stereo not given in full) | 0.55 | 0.55 nM

The next lines start with results.

Ratio [1] | Structure (SMILES) | IC50 (HCT-116)
0.7 | CC(=O)O[C@H]1C(=O)[C@]2(C)[C@@H](O)CC3OC[C@@]3(OC(=O)N3CC3)[C@H]2[C@H](OC(=O)c2ccccc2)[C@]2(O)C[C@H](OC(=O)[C@H](O)[C@@H](NC(=O)c3ccccc3)c3ccco3)C(C)=C1C2(C)C (stereo not given in full) | 6.9 nM
0.8 | CC(=O)O[C@H]1C(=O)[C@]2(C)[C@@H](O)CC3OC[C@@]3(OC(=O)N3CC3)[C@H]2[C@H](OC(=O)c2ccccc2)[C@]2(O)C[C@H](OC(=O)[C@H](O)[C@@H](NC(=O)OC(C)(C)C)c3ccco3)C(C)=C1C2(C)C (stereo not given in full) | 2 nM
0.85 | CC(=O)O[C@H]1C(=O)[C@]2(C)[C@@H](O)CC3OC[C@@]3(OC(C)=O)[C@H]2[C@H](OC(=O)c2ccccc2)[C@]2(O)C[C@H](OC(=O)[C@H](O)[C@@H](NC(=O)c3ccccc3)c3ccoc3)C(C)=C1C2(C)C (stereo not given in full) | 0.74 nM
